Literature values, collected in patent publication US20240261294A1, “METHOD FOR TREATING IDH INHIBITOR-RESISTANT SUBJECTS” (Eli Lilly and Company, priority 2021, published 2024).

Tested on: IDH2-Q316E and IDH2-1319M
Details: preclinical studies; cited from earlier work

SMILES: CC(C)(O)CNc1nc(Nc2ccnc(C(F)(F)F)c2)nc(-c2cccc(C(F)(F)F)n2)n1 [enasidenib]
- binding and inhibition of the mutant enzymes: no longer able to bind and inhibit the mutant enzymes
